What was measured:
EZH2 = assay: Cellular fractionation, EZH2 localization in MYC-CTNNB1 tumor organoids; type: cell-based, mouse; conditions: WNTinib 1 μM, sorafenib 10 μM, 24 hours
Procedure: Cells were spun down again at 500 g, 4° C., for 5 minutes in ultra-low attachment 1.5 mL Eppendorf tubes. Cells were resuspended in 100 μL of lysis buffer 1 (50 mM HEPES-KOH, pH 7.5, 140 mM NaCl, 1 mM EDTA, 10% glycerol, 0.5% NP-40, 0.25% Triton X-100, lx protease/phosphatase inhibitors) and agitated at 4° C. for 10 minutes. Lysate was spun at 1,350 g, 4° C., for 5 minutes. The supernatant was saved for the cytoplasmic fraction. The pellet was resuspended in 100 μL of lysis buffer 2 (10 mM Tris-HCl, pH 8.0, 200 mM NaCl, 1 mM EDTA, 0.5 mM EGTA, lx protease/phosphatase inhibitors) and agitated at room temperature for 10 minutes. The supernatant was saved for the nuclear fraction. The pellet was resuspended in 35 μL of lysis buffer 3 (10 mM Tris-HCl, pH 8.0, 100 mM NaCl, 1 mM EDTA, 0.5 mM EGTA, 0.1% Na-Deoxycholate, 0.5% N-lauroylsarcosine, lx protease/phosphatase inhibitors) and agitated at 4° C. for 10 minutes. 1/10 volume of 10% Triton X-100 was added to the lysate, which was spun down at 20,000 g, 4° C., for 10 minutes. Supernatant was taken for chromatin fraction. […] SDS-PAGE was performed using standard procedures.
Next, EZH2 localization in WNTinib sensitive MYC-CTNNB1 and insensitive MYC-Tp53 tumor organoids was investigated. EZH2 localized diffusively in the MYC-CTNNB1 model but was primarily nuclear insoluble in the MYC-Tp53 model (FIG. 6E; lanes 7-9, left and right panels).

[1] = Single dose oral pharmacokinetics; type: in vivo, BALB/c mice; conditions: for half-life: 20 mg/kg oral gavage
Procedure: All animal experiments were carried out in accordance with ethical guidelines and approved by the Institutional Animal Care and Use Committee (IACUC), Biological Resource Center (BRC) A*STAR. BALB/c mice were purchased from InVivos, Singapore and fed with a standard laboratory diet and distilled water ad libitum. The animals were kept on a 12-hour light/dark cycle at 22±2° C. in individually ventilated caging systems with 50-65% humidity in the Biological Resource Centre, A*Star, Singapore. For single dose oral pharmacokinetic studies, female BALB/c mice (n=8, 6-8 weeks old) were used. The animals were fasted overnight and administered with a single oral dose (20 mg/kg) of WNTinib as prepared above. Blood samples were collected at pre-determined time points [0 (pre-dosing), 0.5, 1, 2, 4, 8, 12, and 24 hours] through the retro-orbital plexus (using micro hematocrit capillary tubes) into microvette CB300 K2E tubes. A sparse sampling technique (four mice per time point) was adopted during blood collection so that blood loss from each mouse was kept less than 10% of the total blood volume. Plasma was harvested by centrifuging the blood using a Sorvall Legend Micro 21R centrifuge (Thermo Scientific) at 3000 rpm for 15 minutes and stored at […] until further analysis. Mice were allowed to access feed 2 hours post-dosing and water ad libitum. Pharmacokinetic analysis of these compounds was performed using a Shimadzu UFLC prominence system (equipped with degasser (DGU-20A5), isopump (LC-20AD), autosampler (SIL-20AC HT) and column oven (CTO-20AC)) connected to a Sciex 4000 Q-Trap LC/MS/MS with heated electrospray ionization source. The primary stock solution (1.0 mg/mL) of WNTinib and Carbamazepine (Internal Standard, IS) were prepared in DMSO and used for subsequent dilutions. Required secondary and working stocks were prepared from the primary stocks using acetonitrile:water (75:25, v/v) as a diluent for the calibration curve (CC) and quality control (QC) studies. For the pharmacokinetic analysis, the mouse plasma was mixed with carbamazepine (50 ng/ml, final concentration) and extraction solvent (70% acetonitrile and 0.1% formic acid) and shaken for 10 minutes. After vigorous shaking, the samples were centrifuged at 14000 rpm for 20 minutes and the supernatant was collected. Chromatographic resolution of compound and the IS was achieved by injecting 1-2 μL of the processed sample on a Luna C18 100 Å column (50×2.0 mm, 5 μm; Phenomenex, USA) maintained at room temperature using a mobile phase consisting of 5 mM ammonium formate (buffered with 0.1% formic acid) and acetonitrile delivered at a flow-rate of 0.4 mL/minute. Quantitation was carried out using the multiple reaction monitoring of the transitions.

[2] = system: MYC-lucOS; CTNNB1 mutant HCC; assay: Hydrodynamic tail vein model of CTNNB1-mutated HCC, survival; type: in vivo, C57/BL6 mice; conditions: 5 days on/2 days off
Procedure: A sterile 0.9% NaCl solution/plasmid mix was prepared containing DNA—12 μg of pT3-EF1α-MYC-IRES-luciferase-OS (MYC-lucOS), 10 μg of pT3-N90-CTNNB1 (CTNNB1), and a 4:1 ratio of transposon to SB13 transposase-encoding plasmid. A volume equivalent to 10% of mouse body weight was injected through the tail vein using a 3 mL syringe with a 26-gauge needle (11). Animals were monitored for 6 days, and bioluminescent signal from tumors was visualized using an IVIS Spectrum system. Anesthetized mice were imaged 5 minutes after intraperitoneal injection of 100 mg/kg D-luciferin (Thermo Fisher Scientific). IVIS Living Image software was used to quantify luciferase signal, which was normalized by subtracting background signal. […] Oral drug treatment began in randomized arms seven days after plasmid injection. Kinase inhibitors were prepared as stated above, and WNTinib and sorafenib were dosed at concentrations of 20 mg/kg and 30 mg/kg, respectively. Drugs were administered following a 5 days on/2 days off treatment schedule. Body weights were recorded daily, and animals were monitored for signs of sickness, tumor palpability, and death. Sick animals were sacrificed according to the ISMMS IACUC guidelines.
Given that tumors with dysregulated WNT signaling are associated with tumor immune exclusion and overall are refractory to treatment with immune checkpoint inhibitors, the efficacy of WNTinib was tested in combination with immunotherapy. First, a hydrodynamic tail vein mouse model of MYC-lucOS, CTNNB1 mutant HCC, which is known to be refractory to treatment with anti-PD-1 was used (Ruiz de Galarreta et al., “O-Catenin Activation Promotes Immune Escape and Resistance to Anti-PD-1 Therapy in Hepatocellular Carcinoma,” Cancer Discov. 9(8):1124-1141 (2019), which is hereby incorporated by reference in its entirety). C57/BL6 mice were randomized into treatment groups using IVIS imaging to quantify tumor size based on luminescence signal intensity. After randomization, kinase inhibitors were dissolved in 25% cremaphor:ethanol in water and administered orally (30 mg/kg sorafenib, 20 mg/kg WNTinib) beginning 7 days after injection following a 5 days on/2 days off dosing schedule. Immunotherapy (anti-PD-1) was administered via intraperitoneal injection on days 11, 13, and 15 after injection at […].

pT367 EZH2 and pT71 ATF2 = conditions: WNTinib 1 μM, sorafenib 10 μM; for temporal inhibition of pT367 EZH2 and pT71 ATF2: MYC-CTNNB1 organoids, SB202190 10 μM, 48 hours time course; for modulation of pT367 EZH2 in the four tumor organoid models: 48 hours
Procedure: Tumor organoids were grown in 24 well plates and were collected in Cell Recovery Solution (Corning) after drug treatment. Tumor organoids were left to rotate at 4° C. for one hour in order to dissolve the Matrigel. Tumor organoids were spun down at 300 g at 4° C. for 5 minutes. Pellets were lysed in 2× Laemmli buffer (+4% 2-mercaptoethanol) by heating at 95° C. for 10 minutes followed by 5 seconds of sonication. SDS-PAGE was run using standard procedures.

CNC(=O)c1cc(Oc2ccc(NC(=O)Nc3ccc(C(F)(F)C(F)(F)F)cc3)c(F)c2)ccn1 [WNTinib, 4-(3-fluoro-4-(3-(4-(perfluoroethyl)phenyl)ureido)phenoxy)-N-methylpicolinamide]
nuclear partitioning of EZH2 (EZH2): increase in nuclear partitioning of EZH2 | pT367 EZH2 in the cytoplasm (EZH2): ablated | detectable quantities of drug in blood plasma, time post dosing ([1]; 20 mg/kg oral): up to 72 hours | half-life ([1]; female, BALB/c, mouse, plasma): 9.38 h | concentration at 24 h ([1]; female, BALB/c, mouse, plasma, 20 mg/kg oral, read-out: concentration 24 hours after oral dosing): 7 µM | remaining animals alive, time post final dosing ([2]; WNTinib 20 mg/kg): over 300 days | share of treatment arm that succumbed to death ([2]; WNTinib 20 mg/kg): 40% | survival benefit ([2]; WNTinib 20 mg/kg): significant survival benefit | temporal inhibition of pT367 EZH2 and pT71 ATF2 (pT367 EZH2 and pT71 ATF2): delayed, but durable inhibition up to 48 hours | modulation of pT367 EZH2 in the four tumor organoid models (pT367 EZH2 and pT71 ATF2): inhibited by WNTinib in the MYC-CTNNB1 model

CNC(=O)c1cc(Oc2ccc(NC(=O)Nc3ccc(Cl)c(C(F)(F)F)c3)cc2)ccn1 [sorafenib, reference compound]
nuclear partitioning of EZH2 (EZH2): did not impact phosphorylation or nuclear to cytoplasmic ratios of EZH2 | pT367 EZH2 in the cytoplasm (EZH2): did not impact phosphorylation | half-life ([1]; female, BALB/c, mouse, plasma): 8 h | survival benefit ([2]; sorafenib 30 mg/kg): 7.5 days | temporal inhibition of pT367 EZH2 and pT71 ATF2 (pT367 EZH2 and pT71 ATF2): transient inhibition | modulation of pT367 EZH2 in the four tumor organoid models (pT367 EZH2 and pT71 ATF2): induced pT367 across several organoid models

Reference: US20230404985A1, “METHODS OF TREATING TUMORS AND CANCERS HAVING DYSREGULATED WNT SIGNALING PATHWAYS” (ICAHN SCHOOL OF MEDICINE AT MOUNT SINAI, priority 2020, published 2023)
